Results: patent US11547681B2, “N-acylethanolamide derivatives and uses thereof” (ELIEM THERAPEUTICS, INC., priority 2016, dated 2023)

Assay: in vitro
Details: male; for Measured concentration of analyte PEA, 0 min / Measured concentration of analyte PEA, 10 min / Measured concentration of analyte PEA, 20 min / Measured concentration of analyte PEA, 30 min / Measured concentration of analyte PEA, 60 min / % Remaining of Initial, 0 min / % Remaining of Initial, 10 min / % Remaining of Initial, 20 min / % Remaining of Initial, 30 min / % Remaining of Initial, 60 min / Measured concentration of PEA (analyte) / % Remaining of Initial / Concentration, analyte PEA / % Remaining of Initial (n = 1): 1 μM; for % Remaining of Initial, 0 min / % Remaining of Initial, 10 min / % Remaining of Initial, 20 min / % Remaining of Initial, 30 min / % Remaining of Initial, 60 min / microsomal CLint at 1 μM / half-life at 1 μM / % Remaining of Initial / % Remaining of Initial (n = 1): microsomes
Description: (§1) Reaction mixture, minus cofactors, was prepared as described below. Test article was added into the reaction mixture at a final concentration of 1 μM. […] An aliquot of the reaction mixture (without cofactor) was equilibrated in a shaking water bath at 37° C. for 3 minutes. The reaction was initiated by the addition of cofactor, and the mixture was incubated in a shaking water bath at 37° C. Aliquots (100 μL) were withdrawn at 0, 10, 20, 30, and 60 minutes. Test article samples were immediately combined with 300 μL of ice-cold acetonitrile containing 1% formic acid. Control samples were immediately combined with 400 μL of ice-cold 50/50 acetonitrile (ACN)/dH2O containing 0.1% formic acid and internal standard to terminate the reaction. Samples were then mixed and centrifuged to precipitate proteins. Calibration standards were prepared in matched matrix. Samples and standards were assayed by LC-MS/MS using electrospray ionization for both dosed prodrug and expected drug (PEA). Analytical conditions are outlined in Appendix 8-1. Test article concentration at each time point was compared to test article concentration at time 0 to determine the percent remaining at each time point. Half-lives were calculated using GraphPad software, fitting to a single-phase exponential decay equation.
Reaction mixture, minus cofactors, was prepared as described below. Test article was added into the reaction mixture at a final concentration of 1 μM. […] An aliquot of the reaction mixture (without cofactor) was equilibrated in a shaking water bath at 37° C. for 5 minutes. Reaction was initiated by the addition of cofactor, and the mixture was incubated in a shaking water bath at 37° C. Aliquots (100 μL) were withdrawn at 0, 10, 20, 30, and 60 minutes. Test article samples were immediately combined with 300 μL of ice-cold acetonitrile containing 1% formic acid. Control samples were immediately combined with 400 μL of ice-cold 50/50 acetonitrile (ACN)/dH2O containing 0.1% formic acid and internal standard to terminate the reaction. Samples were then mixed and centrifuged to precipitate proteins. Calibration standards were prepared in matched matrix. Samples and standards were assayed by LC-MS/MS using electrospray ionization for both the dosed prodrug and the expected drug (PEA). Analytical conditions are outlined in Appendix 10-1. Test article concentration at each time point was compared to the test article concentration at time 0 to determine the percent remaining at each time point. Half-lives were calculated using GraphPad software, fitting to a single-phase exponential decay equation.
as §1, with “minutes. Reaction” for “minutes. The reaction”, “300 μL,” for “300 μL”, “Appendix 13-1.” for “Appendix 8-1.”
Reaction mixture, minus cofactors, was prepared as described below.

SMILES	Measured concentration of analyte PEA, 0 min (Beagle, dog, 0 min) [µM]	Measured concentration of analyte PEA, 10 min (Beagle, dog, 10 min) [µM]	Measured concentration of analyte PEA, 20 min (Beagle, dog, 20 min) [µM]	Measured concentration of analyte PEA, 30 min (Beagle, dog, 30 min) [µM]	Measured concentration of analyte PEA, 60 min (Beagle, dog, 60 min) [µM]	% Remaining of Initial, 0 min (Beagle, dog, 0 h) [%]	% Remaining of Initial, 10 min (Beagle, dog, 10 min) [%]	% Remaining of Initial, 20 min (Beagle, dog, 20 min) [%]	% Remaining of Initial, 30 min (Beagle, dog, 0.5 h) [%]	% Remaining of Initial, 60 min (Beagle, dog, 1 h) [%]	microsomal CLint at 1 μM (Beagle, dog) [µL/min/mg]	half-life at 1 μM (Beagle, dog, Half-life) [min]	Measured concentration of analyte PEA, 0 min (CD-1, mouse, 0 min) [µM]	Measured concentration of analyte PEA, 10 min (CD-1, mouse, 10 min) [µM]	Measured concentration of analyte PEA, 20 min (CD-1, mouse, 20 min) [µM]	Measured concentration of analyte PEA, 30 min (CD-1, mouse, 30 min) [µM]	Measured concentration of analyte PEA, 60 min (CD-1, mouse, 60 min) [µM]	% Remaining of Initial, 0 min (CD-1, mouse, 0 h) [%]	microsomal CLint at 1 μM (CD-1, mouse) [µL/min/mg]	half-life at 1 μM (CD-1, mouse, Half-life) [min]	also measured
CCCCC/C=C\C/C=C\CCCCCCCC(=O)OCCNC(=O)CCCCCCCCCCCCCCC [Compound I-6]	0.030	0.087	0.091	0.080	0.084	100	103	100	91	77	< 23.1	> 60	0.022	0.055	0.039	0.041	0.027	100	< 23.1	> 60	% Remaining of Initial, 10 min (CD-1, mouse, 10 min): 84%; % Remaining of Initial, 20 min (CD-1, mouse, 20 min): 74%; % Remaining of Initial, 30 min (CD-1, mouse, 0.5 h): 73%; % Remaining of Initial, 60 min (CD-1, mouse, 1 h): 61%; microsomal CLint at 1 μM (CD-1, mouse, calculated value in parentheses): 16.4 µL/min/mg; half-life at 1 μM (CD-1, mouse, Calculated half-life (in parentheses)): 84 min
CCCCCCCCCCCCCCCC(=O)NCCOC(=O)CCC(=O)OC(CO)CO [Compound I-8]	–	–	–	–	–	–	–	–	–	–	> 1380	< 1	–	–	–	–	–	–	> 1380	< 1	Measured concentration of PEA (analyte) (Beagle, dog, 0 min): 0.33 µM; Measured concentration of PEA (analyte) (Beagle, dog, 10 min): 0.54 µM; Measured concentration of PEA (analyte) (Beagle, dog, 20 min): 0.46 µM; Measured concentration of PEA (analyte) (Beagle, dog, 30 min): 0.44 µM; Measured concentration of PEA (analyte) (Beagle, dog, 60 min): 0.20 µM; % Remaining of Initial (Beagle, dog, 0 h): 100%; % Remaining of Initial (Beagle, dog, 10 min): <1.0%; % Remaining of Initial (Beagle, dog, 20 min): <1.0%; % Remaining of Initial (Beagle, dog, 0.5 h): <1.0%; % Remaining of Initial (Beagle, dog, 1 h): <1.0%; Measured concentration of PEA (analyte) (CD-1, mouse, 0 min): 0.45 µM; Measured concentration of PEA (analyte) (CD-1, mouse, 10 min): 0.30 µM; Measured concentration of PEA (analyte) (CD-1, mouse, 20 min): 0.15 µM; Measured concentration of PEA (analyte) (CD-1, mouse, 30 min): 0.086 µM; Measured concentration of PEA (analyte) (CD-1, mouse, 60 min): 0 µM; % Remaining of Initial (CD-1, mouse, 0 h): 100%; % Remaining of Initial (CD-1, mouse, 10 min): <1.0%; % Remaining of Initial (CD-1, mouse, 20 min): <1.0%; % Remaining of Initial (CD-1, mouse, 0.5 h): <1.0%; % Remaining of Initial (CD-1, mouse, 1 h): <1.0%
CCCCCCCCCCCCCCCC(=O)NCCOC(=O)CCC(=O)OCC(COC(=O)CCC)OC(=O)CCC (centres unmarked) [Compound I-11]	0.032	0.32	0.26	0.20	0.097	100	3.6	<1.0	<1.0	<1.0	665	2.1	0.22	0.32	0.18	0.12	0.030	100	687	2	% Remaining of Initial, 10 min (CD-1, mouse, 10 min): 3.2%; % Remaining of Initial, 20 min (CD-1, mouse, 20 min): <1.0%; % Remaining of Initial, 30 min (CD-1, mouse, 0.5 h): <1.0%; % Remaining of Initial, 60 min (CD-1, mouse, 1 h): <1.0%
CCCCC/C=C\C/C=C\CCCCCCCC(=O)OCC(COC(=O)CCC(=O)OCCNC(=O)CCCCCCCCCCCCCCC)OC(=O)CCCCCCC/C=C\C/C=C\CCCCC (centres unmarked) [Compound I-13]	–	–	–	–	–	–	–	–	–	–	36.2	38	–	–	–	–	–	–	29.1	48	Concentration, analyte PEA (Beagle, dog, 0 min): 0 nM; Concentration, analyte PEA (Beagle, dog, 10 min): 0 nM; Concentration, analyte PEA (Beagle, dog, 20 min): 0 nM; Concentration, analyte PEA (Beagle, dog, 30 min): 0 nM; Concentration, analyte PEA (Beagle, dog, 60 min): 0 nM; % Remaining of Initial (n = 1) (Beagle, dog, 0 h): 100%; % Remaining of Initial (n = 1) (Beagle, dog, 10 min): 78%; % Remaining of Initial (n = 1) (Beagle, dog, 20 min): 76%; % Remaining of Initial (n = 1) (Beagle, dog, 0.5 h): 56%; % Remaining of Initial (n = 1) (Beagle, dog, 1 h): 32%; Concentration, analyte PEA (CD-1, mouse, 0 min): 0 nM; Concentration, analyte PEA (CD-1, mouse, 10 min): 0 nM; Concentration, analyte PEA (CD-1, mouse, 20 min): 0 nM; Concentration, analyte PEA (CD-1, mouse, 30 min): 0 nM; Concentration, analyte PEA (CD-1, mouse, 60 min): 0 nM; % Remaining of Initial (n = 1) (CD-1, mouse, 0 h): 100%; % Remaining of Initial (n = 1) (CD-1, mouse, 10 min): 69%; % Remaining of Initial (n = 1) (CD-1, mouse, 20 min): 75%; % Remaining of Initial (n = 1) (CD-1, mouse, 0.5 h): 54%; % Remaining of Initial (n = 1) (CD-1, mouse, 1 h): 44%

More lines, main results first:

Measured concentration of analyte PEA, 0 min (Beagle, dog, 0 min) [µM]	Measured concentration of analyte PEA, 10 min (Beagle, dog, 10 min) [µM]	Measured concentration of analyte PEA, 20 min (Beagle, dog, 20 min) [µM]	Measured concentration of analyte PEA, 30 min (Beagle, dog, 30 min) [µM]	Measured concentration of analyte PEA, 60 min (Beagle, dog, 60 min) [µM]	% Remaining of Initial, 0 min (Beagle, dog, 0 h) [%]	% Remaining of Initial, 10 min (Beagle, dog, 10 min) [%]	% Remaining of Initial, 20 min (Beagle, dog, 20 min) [%]	% Remaining of Initial, 30 min (Beagle, dog, 0.5 h) [%]	% Remaining of Initial, 60 min (Beagle, dog, 1 h) [%]	microsomal CLint at 1 μM (Beagle, dog) [µL/min/mg]	half-life at 1 μM (Beagle, dog, Half-life) [min]	Measured concentration of analyte PEA, 0 min (CD-1, mouse, 0 min) [µM]	Measured concentration of analyte PEA, 10 min (CD-1, mouse, 10 min) [µM]	Measured concentration of analyte PEA, 20 min (CD-1, mouse, 20 min) [µM]	Measured concentration of analyte PEA, 30 min (CD-1, mouse, 30 min) [µM]	Measured concentration of analyte PEA, 60 min (CD-1, mouse, 60 min) [µM]	% Remaining of Initial, 0 min (CD-1, mouse, 0 h) [%]	microsomal CLint at 1 μM (CD-1, mouse) [µL/min/mg]	half-life at 1 μM (CD-1, mouse, Half-life) [min]	SMILES	also measured
0.59	0.50	0.47	0.38	0.20	100	1.6	1.4	1.3	<1.0	823	1.7	0.28	0.29	0.18	0.11	0.034	100	814	1.7	CCCCCCCCCCCCCCCC(=O)NCCOC(=O)CCC(=O)OC[C@H]1O[C@@](CO)(O[C@H]2O[C@H](CO)[C@@H](O)[C@H](O)[C@H]2O)[C@@H](O)[C@@H]1O [Compound I-7]	% Remaining of Initial, 10 min (CD-1, mouse, 10 min): 1.7%; % Remaining of Initial, 20 min (CD-1, mouse, 20 min): 1.2%; % Remaining of Initial, 30 min (CD-1, mouse, 0.5 h): <1.0%; % Remaining of Initial, 60 min (CD-1, mouse, 1 h): <1.0%
0.39	0.42	0.32	0.26	0.18	100	<1.0	<1.0	<1.0	<1.0	> 1380	< 1	0.52	0.29	0.18	0.11	0.036	100	> 1380	< 1	CCCCCCCCCCCCCCCC(=O)NCCOC(=O)CCC(=O)OCC(O)CO (centres unmarked) [Compound I-9]	% Remaining of Initial, 10 min (CD-1, mouse, 10 min): <1.0%; % Remaining of Initial, 20 min (CD-1, mouse, 20 min): <1.0%; % Remaining of Initial, 30 min (CD-1, mouse, 0.5 h): <1.0%; % Remaining of Initial, 60 min (CD-1, mouse, 1 h): <1.0%
